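48-hour exposure; five concentrations; linearly interpolated endpoints. GI50 marks 50% less growth. TGI: concentration producing complete growth inhibition.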

Some test systems named below: SF-268 CNS; HOP-92 NSCLC; PC-3 prostate; HT29 colon; IGROV1 ovarian; M14 melanoma; LOX IMVI melanoma; COLO 205 colon; SNB-19 CNS; SK-MEL-28 melanoma.
Holding throughout (assay): growth of human tumour cells (NCI), 48 h

With `O=C(Nc1ccncc1)C(=O)c1cn(S(=O)(=O)c2ccccc2F)c2ccccc12`, the GI50 with SF-268 CNS is 2.32 µM; in the assay with HOP-92 NSCLC, 2.93 µM; in the assay with PC-3 prostate, 2.35 µM; in the assay with HT29 colon, 0.45 µM; in the assay on IGROV1 ovarian, 3.83 µM; with M14 melanoma, 0.979 µM. The GI50 with COLO 205 colon is 23.6 µM; with SNB-19 CNS it was 7.17 µM; in the assay with SK-MEL-28 melanoma it was 3.59 µM. The TGI in the assay with SF-268 CNS is over 79.3 µM; with HOP-92 NSCLC, 60.2 µM; in the assay on PC-3 prostate, over 68.5 µM; in the assay on HT29 colon, over 31.9 µM; in the assay with IGROV1 ovarian, over 100 µM; in the assay on M14 melanoma, over 100 µM. The TGI in the assay on LOX IMVI melanoma is over 100 µM; in the assay with COLO 205 colon it was over 100 µM; with SNB-19 CNS it was over 80.4 µM; in the assay on SK-MEL-28 melanoma, 49.1 µM.

With `O=[N+]([O-])c1cc(Br)cc2c1[nH]c1ccc(Br)cc12`, the GI50 with SF-268 CNS is 10.2 µM; with HOP-92 NSCLC it was 7.85 µM; with PC-3 prostate, 10.2 µM; in the assay on HT29 colon it was 4.03 µM; with IGROV1 ovarian it was 2.74 µM; in the assay on M14 melanoma, 14.6 µM. The GI50 in the assay on LOX IMVI melanoma is 4.9 µM; in the assay on COLO 205 colon it was 4.7 µM; in the assay on SNB-19 CNS, 16.1 µM; in the assay on SK-MEL-28 melanoma it was 39 µM. Moreover, the TGI is 45.9 µM in the assay with SF-268 CNS; 36.5 µM in the assay on HOP-92 NSCLC; over 100 µM in the assay with PC-3 prostate; over 100 µM in the assay with HT29 colon; 38.7 µM with IGROV1 ovarian; over 100 µM in the assay on M14 melanoma. The TGI in the assay on LOX IMVI melanoma was over 100 µM; with COLO 205 colon, over 100 µM; in the assay with SNB-19 CNS, 70.8 µM; in the assay with SK-MEL-28 melanoma, over 100 µM.
